# BindingDB's records for doi:10.1016/j.bmc.2017.12.033 (University of Messina, 2018)
# Key:
# [1] = Inhibition of reverse transcriptase Y181C mutant in HIV1 infected in human MT4 cells assessed as protection against virus induced cytotoxicity after 5 days by MTT assay
# [2] = Inhibition of reverse transcriptase K103N mutant in HIV1 infected in human MT4 cells assessed as protection against virus induced cytotoxicity after 5 days by MTT assay
# [3] = Inhibition of reverse transcriptase F227L/V106A double mutant in HIV1 infected in human MT4 cells assessed as protection against virus induced cytotoxicity after 5 days by MTT assay
# [4] = Inhibition of reverse transcriptase E138K mutant in HIV1 infected in human MT4 cells assessed as protection against virus induced cytotoxicity after 5 days by MTT assay
# [5] = Inhibition of reverse transcriptase K103N/Y181C double mutant in HIV1 infected in human MT4 cells assessed as protection against virus induced cytotoxicity after 5 days by MTT assay
# [6] = Inhibition of reverse transcriptase L100I mutant in HIV1 infected in human MT4 cells assessed as protection against virus induced cytotoxicity after 5 days by MTT assay
# [7] = Inhibition of reverse transcriptase Y188L mutant in HIV1 infected in human MT4 cells assessed as protection against virus induced cytotoxicity after 5 days by MTT assay
SMILES,EC50 [1] [nM],EC50 [2] [nM],EC50 [3] [nM],EC50 [4] [nM],EC50 [5] [nM],EC50 [6] [nM],EC50 [7] [nM]
Cc1cc(C)cc(S(=O)(=O)n2c(SCC(=O)Nc3ccc(S(C)(=O)=O)cc3)nc3ccccc32)c1,> 10600,1190,> 770,150,> 10600,88,> 10600
Cc1cc(C)cc(S(=O)(=O)n2c(OCC(=O)Nc3ccc(S(C)(=O)=O)cc3Cl)nc3ccccc32)c1,890,> 33900,1820,670,–,290,> 228000
Cc1cc(C)cc(S(=O)(=O)n2c(SCC(=O)Nc3ccc(C(=O)O)cc3)nc3ccccc32)c1,23600,11800,> 124000,1350,> 124000,1820,> 124000
Cc1ccc(NC(=O)CSc2nc3ccccc3n2S(=O)(=O)c2cc(C)cc(C)c2)cc1,> 3130,> 3130,> 3130,160,> 3130,240,> 3130
COC(=O)c1ccc(NC(=O)CSc2nc3ccccc3n2S(=O)(=O)c2cc(C)cc(C)c2)cc1,> 8360,960,> 8360,160,> 8360,170,> 8360
Cc1cc(C)cc(S(=O)(=O)n2c(SCC(=O)Nc3ccc(S(N)(=O)=O)cc3)nc3ccccc32)c1,> 27200,670,1580,60,> 27200,73,1560
